# From the supplement of paper PMC10733146
# Tests used:
# Test in all cases: viability relative to DMSO control (fraction); higher = less drug effect (more viable cells)
# Settings in all cases: 48 h
# [1] = test system: primary AML patient cells (S081)
# Procedure, shortened: (§1)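 Viability was measured as CellTiter-Glo luminescence relative to the median of 16 inner DMSO wells. Primary mononuclear tumour cells, fresh or cryopreserved, were Ficoll-isolated from blood or bone marrow or taken from processed lymph node. They were seeded at 4 × 10^4 cells per well into 384-well plates holding pre-plated compounds at five concentrations, one well each, and kept in RPMI-1640 with penicillin/streptomycin, L-glutamine and human serum at 37 °C and 5% CO2 for 48 h.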
# [2] = test system: primary FL patient cells (S022)
# Procedure, shortened: as §1
# [3] = test system: primary ALL patient cells (S048)
# Procedure, shortened: as §1
# [4] = test system: primary AML patient cells (S011)
# Procedure, shortened: as §1
# [5] = test system: primary AML patient cells (S017)
# Procedure, shortened: as §1
# [6] = test system: primary BL patient cells (S005)
# Procedure, shortened: as §1
# [7] = test system: primary AML patient cells (S006)
# Procedure, shortened: as §1
# [8] = test system: primary MCL patient cells (S063)
# Procedure, shortened: as §1
# [9] = test system: primary FL patient cells (S087)
# Procedure, shortened: as §1
# [10] = test system: primary AML patient cells (S060)
# Procedure, shortened: as §1
# [11] = test system: primary CLL patient cells (S031)
# Procedure, shortened: as §1
# [12] = test system: primary AML patient cells (S021)
# Procedure, shortened: as §1
# [13] = test system: primary AML patient cells (S012)
# Procedure, shortened: as §1
# [14] = test system: primary CLL patient cells (S043)
# Procedure, shortened: as §1
# [15] = test system: primary B-PLL patient cells (S016)
# Procedure, shortened: as §1
# [16] = test system: primary AML patient cells (S085)
# Procedure, shortened: as §1
# [17] = test system: primary ALL patient cells (S088)
# Procedure, shortened: as §1
# [18] = test system: primary MCL patient cells (S068)
# Procedure, shortened: as §1
# [19] = test system: primary AML patient cells (S056)
# Procedure, shortened: as §1
# [20] = test system: primary MCL patient cells (S053)
# Procedure, shortened: as §1
smiles,measurement,setting,value
Nc1ccn([C@@H]2O[C@H](CO)[C@@H](O)[C@@H]2O)c(=O)n1 [Cytarabine],viability,[1]; 0.032 µM,1.1
same,viability,[1]; 0.16 µM,1.07
same,viability,[1]; 0.8 µM,1.14
same,viability,[1]; 4 µM,0.884
same,viability,[1]; 20 µM,0.4
same,viability,[2]; 0.032 µM,1.17
same,viability,[2]; 0.16 µM,1.04
same,viability,[2]; 0.8 µM,1.09
same,viability,[2]; 4 µM,0.93
same,viability,[2]; 20 µM,0.589
same,viability,[3]; 0.032 µM,0.974
same,viability,[3]; 0.16 µM,0.862
same,viability,[3]; 0.8 µM,0.561
same,viability,[3]; 4 µM,0.154
same,viability,[3]; 20 µM,0.0402
same,viability,[4]; 0.032 µM,1.52
same,viability,[4]; 0.16 µM,1.04
same,viability,[4]; 0.8 µM,0.942
same,viability,[4]; 4 µM,0.681
same,viability,[4]; 20 µM,0.224
same,viability,[5]; 0.032 µM,1.11
same,viability,[5]; 0.16 µM,1.07
same,viability,[5]; 0.8 µM,1.15
same,viability,[5]; 4 µM,0.665
same,viability,[5]; 20 µM,0.303
same,viability,[6]; 0.032 µM,1.03
same,viability,[6]; 0.16 µM,1.02
same,viability,[6]; 0.8 µM,0.98
same,viability,[6]; 4 µM,0.969
same,viability,[6]; 20 µM,0.893
same,viability,[7]; 0.032 µM,1.09
same,viability,[7]; 0.16 µM,0.996
same,viability,[7]; 0.8 µM,0.773
same,viability,[7]; 4 µM,0.147
same,viability,[7]; 20 µM,0.0817
same,viability,[8]; 0.032 µM,1.11
same,viability,[8]; 0.16 µM,1.08
same,viability,[8]; 0.8 µM,0.957
same,viability,[8]; 4 µM,0.489
same,viability,[8]; 20 µM,0.238
same,viability,[9]; 0.032 µM,1.03
same,viability,[9]; 0.16 µM,1.02
same,viability,[9]; 0.8 µM,0.959
same,viability,[9]; 4 µM,0.747
same,viability,[9]; 20 µM,0.628
same,viability,[10]; 0.032 µM,1.09
same,viability,[10]; 0.16 µM,1.02
same,viability,[10]; 0.8 µM,1.01
same,viability,[10]; 4 µM,0.505
same,viability,[10]; 20 µM,0.132
same,viability,[11]; 0.032 µM,1.15
same,viability,[11]; 0.16 µM,1.04
same,viability,[11]; 0.8 µM,0.706
same,viability,[11]; 4 µM,0.177
same,viability,[11]; 20 µM,0.0741
same,viability,[12]; 0.032 µM,1.03
same,viability,[12]; 0.16 µM,1.1
same,viability,[12]; 0.8 µM,0.882
same,viability,[12]; 4 µM,0.849
same,viability,[12]; 20 µM,0.419
same,viability,[13]; 0.032 µM,0.99
same,viability,[13]; 0.16 µM,0.927
same,viability,[13]; 0.8 µM,0.985
same,viability,[13]; 4 µM,0.935
same,viability,[13]; 20 µM,0.602
same,viability,[14]; 0.032 µM,1.1
same,viability,[14]; 0.16 µM,0.975
same,viability,[14]; 0.8 µM,0.707
same,viability,[14]; 4 µM,0.236
same,viability,[14]; 20 µM,0.0952
same,viability,[15]; 0.032 µM,1.11
same,viability,[15]; 0.16 µM,0.733
same,viability,[15]; 0.8 µM,0.145
same,viability,[15]; 4 µM,0.0425
same,viability,[15]; 20 µM,0.0373
same,viability,[16]; 0.032 µM,1.1
same,viability,[16]; 0.16 µM,1.02
same,viability,[16]; 0.8 µM,0.925
same,viability,[16]; 4 µM,0.372
same,viability,[16]; 20 µM,0.106
same,viability,[17]; 0.032 µM,1.08
same,viability,[17]; 0.16 µM,0.969
same,viability,[17]; 0.8 µM,0.676
same,viability,[17]; 4 µM,0.304
same,viability,[17]; 20 µM,0.138
same,viability,[18]; 0.032 µM,1.1
same,viability,[18]; 0.16 µM,1.01
same,viability,[18]; 0.8 µM,0.807
same,viability,[18]; 4 µM,0.38
same,viability,[18]; 20 µM,0.209
same,viability,[19]; 0.032 µM,1.05
same,viability,[19]; 0.16 µM,1
same,viability,[19]; 0.8 µM,0.719
same,viability,[19]; 4 µM,0.177
same,viability,[19]; 20 µM,0.0767
same,viability,[20]; 0.032 µM,1.01
same,viability,[20]; 0.16 µM,0.754
same,viability,[20]; 0.8 µM,0.327
same,viability,[20]; 4 µM,0.195
same,viability,[20]; 20 µM,0.136
